As a reminder, the Inhibition is the relative decrease from the control value, in per cent. Higher therefore signals a strong effect. What is called IC50 is the concentration at which inhibition is half-maximal. High values mean weaker potency in that assay, low ones greater potency in that assay.

Consider eleven compounds from ChEMBL document CHEMBL1133935, “A novel phosphotyrosine mimetic 4'-carboxymethyloxy-3'-phosphonophenylalanine (Cpp): exploitation in the design of nonpeptide inhibitors of pp60(Src) SH2 domain” (Bioorg Med Chem Lett, 2001).

The species entered for one experiment is Oryctolagus cuniculus. Description: Inhibition of rabbit osteoclast-mediated resorption of dentine at 100 uM; 0-35% inhibition. Format: functional.
Experiment [1] has as its target Tyrosine-protein kinase Yes (Homo sapiens, UniProt P07947). Description: Inhibition of binding to Yes SH2 domain.
The target in experiment [2] is T1, Tyrosine-protein kinase ZAP-70 (Homo sapiens, UniProt P43403).
T1 sequence (P43403 whole entry): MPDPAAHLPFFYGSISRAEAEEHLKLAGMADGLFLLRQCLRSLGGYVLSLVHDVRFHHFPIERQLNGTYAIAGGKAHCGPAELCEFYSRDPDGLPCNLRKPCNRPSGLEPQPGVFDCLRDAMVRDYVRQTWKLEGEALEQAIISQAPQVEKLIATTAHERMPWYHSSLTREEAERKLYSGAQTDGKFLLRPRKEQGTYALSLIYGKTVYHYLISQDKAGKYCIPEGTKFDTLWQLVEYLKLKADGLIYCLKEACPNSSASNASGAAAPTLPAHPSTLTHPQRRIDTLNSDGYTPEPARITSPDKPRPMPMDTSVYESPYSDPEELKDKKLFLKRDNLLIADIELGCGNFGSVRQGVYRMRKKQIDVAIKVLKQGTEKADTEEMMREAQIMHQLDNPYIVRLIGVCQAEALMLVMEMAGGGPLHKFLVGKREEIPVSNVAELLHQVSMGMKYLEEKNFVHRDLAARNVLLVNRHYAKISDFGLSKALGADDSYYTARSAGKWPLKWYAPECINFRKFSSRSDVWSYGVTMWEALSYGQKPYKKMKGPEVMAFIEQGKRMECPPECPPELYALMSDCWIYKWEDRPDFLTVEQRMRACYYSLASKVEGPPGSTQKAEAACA
The experiment in a line: Inhibition of binding to Zap70 protein kinase.

Experiment [3] deals with Proto-oncogene tyrosine-protein kinase Src (Homo sapiens, UniProt P12931). The experiment in a line: Inhibition of binding to Src SH2 domain.
Proto-oncogene tyrosine-protein kinase Src, sequence (P12931 2-536 limits assumed): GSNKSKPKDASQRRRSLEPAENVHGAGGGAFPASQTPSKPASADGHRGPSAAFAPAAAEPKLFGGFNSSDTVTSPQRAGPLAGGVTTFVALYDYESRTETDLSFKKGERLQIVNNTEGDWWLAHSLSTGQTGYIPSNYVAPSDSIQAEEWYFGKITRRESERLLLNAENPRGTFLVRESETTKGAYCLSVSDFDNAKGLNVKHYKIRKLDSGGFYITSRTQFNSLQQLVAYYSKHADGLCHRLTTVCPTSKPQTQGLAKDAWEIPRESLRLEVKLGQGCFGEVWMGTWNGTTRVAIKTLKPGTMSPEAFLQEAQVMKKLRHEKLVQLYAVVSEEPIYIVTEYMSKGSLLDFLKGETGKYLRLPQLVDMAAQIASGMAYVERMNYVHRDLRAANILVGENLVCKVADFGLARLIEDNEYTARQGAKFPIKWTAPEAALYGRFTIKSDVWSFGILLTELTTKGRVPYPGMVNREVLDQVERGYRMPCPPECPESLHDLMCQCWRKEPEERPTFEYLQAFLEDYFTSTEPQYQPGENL

Where only a bound is given, the exact number is not on record here.

Tyrosine-protein kinase Yes, sequence (P07947 whole entry, the tested form may be a part): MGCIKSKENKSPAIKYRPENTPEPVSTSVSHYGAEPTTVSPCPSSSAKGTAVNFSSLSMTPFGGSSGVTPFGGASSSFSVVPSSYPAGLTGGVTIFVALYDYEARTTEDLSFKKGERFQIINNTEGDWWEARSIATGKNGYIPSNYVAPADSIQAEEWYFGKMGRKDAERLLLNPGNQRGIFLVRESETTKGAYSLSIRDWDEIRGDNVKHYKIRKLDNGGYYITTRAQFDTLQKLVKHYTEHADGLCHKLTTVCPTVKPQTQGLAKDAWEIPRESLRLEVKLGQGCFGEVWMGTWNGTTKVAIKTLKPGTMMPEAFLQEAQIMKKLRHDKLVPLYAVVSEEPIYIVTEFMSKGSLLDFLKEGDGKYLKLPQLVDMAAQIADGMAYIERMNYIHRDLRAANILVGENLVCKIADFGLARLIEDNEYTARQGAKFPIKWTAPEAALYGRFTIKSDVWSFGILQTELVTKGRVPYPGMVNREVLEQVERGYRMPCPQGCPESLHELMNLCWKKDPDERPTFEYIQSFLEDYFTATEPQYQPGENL

With `CC(=O)NC(Cc1ccc(OCC(=O)O)c(P(=O)(O)O)c1)C(=O)N[C@@H](C)c1ccc(OCC2CCCCC2)c(C(N)=O)c1` (some centres undefined), the Inhibition in the experiment listed under Oryctolagus cuniculus came to 0%. The IC50 was 110 µM in experiment [1] and > 500 µM in experiment [2].

`CC(=O)NC(Cc1ccc(OCC(=O)O)c(P(=O)(O)O)c1)C(=O)NCc1ccc(OCC2CCCCC2)c(C(N)=O)c1` (centres undefined): the concentration for half-maximal inhibition (IC50) was 378 µM in experiment [3], > 500 µM in experiment [1] and > 500 µM in experiment [2].

Consider `CC(C)(NC(=O)CCc1ccc(O)c(P(=O)(O)O)c1)c1ccc(OCC2CCCCC2)c(C(N)=O)c1`, for which the IC50 in experiment [3], in experiment [1] and in experiment [2] was > 500 µM each time.

`CC(=O)NC(Cc1ccc(OCC(=O)O)c(P(=O)(O)O)c1)C(=O)NC(C)(C)c1ccc(OCC2CCCCC2)c(C(N)=O)c1` (centres undefined): the figures for the half-maximal inhibitory concentration (IC50) in experiment [3] and in experiment [2] were 3.2 µM and > 500 µM, respectively.

For the compound `CC(C)(NC(=O)CCc1ccc(OCn2cnnn2)c(P(=O)(O)O)c1)c1ccc(OCC2CCCCC2)c(C(N)=O)c1`, the IC50 in experiment [3], in experiment [1] and in experiment [2] was > 500 µM each time.

As for `CC(C)(NC(=O)CCc1ccc(OCC(=O)O)c(P(=O)(O)O)c1)c1ccc(OCC2CCCCC2)c(C(N)=O)c1`, the results for the half-inhibitory concentration (IC50) in experiment [3], in experiment [1] and in experiment [2] were 35.4 µM, 303 µM and > 500 µM, respectively.

Consider `CCOP(=O)(O)c1cc(CC(NC(C)=O)C(=O)N[C@@H](C)c2ccc(OCC3CCCCC3)c(C(N)=O)c2)ccc1OCC(=O)O` (some centres undefined), for which the IC50 in experiment [3] is 7.3 µM; in experiment [1] it was 156 µM; in experiment [2] it was > 500 µM.

Consider `CC(=O)NC(Cc1ccc(OCC(=O)O)c(P(=O)(O)O)c1)C(=O)Nc1ccc(OCC2CCCCC2)c(C(N)=O)c1` (centres undefined), for which the half-inhibitory concentration (IC50) in experiment [3], in experiment [1] and in experiment [2] was > 500 µM each time.

For the compound `CC(=O)NC(Cc1ccc(OP(=O)(O)O)cc1)C(=O)N[C@@H](C)c1ccc(OCC2CCCCC2)c(C(N)=O)c1` (some centres undefined), in experiment [2], the 50% inhibitory concentration (IC50) was 441 µM.

As to `CC(C)(NC(=O)CCc1ccc(OS(=O)(=O)C(F)(F)F)c(P(=O)(O)O)c1)c1ccc(OCC2CCCCC2)c(C(N)=O)c1`, the IC50 in experiment [3], in experiment [1] and in experiment [2] was > 500 µM throughout.

`CC(=O)NC(Cc1ccc(OCC(=O)O)cc1)C(=O)N[C@@H](C)c1ccc(OCC2CCCCC2)c(C(N)=O)c1` (some centres undefined): the results for the IC50 in experiment [3] and in experiment [1] were 370 µM and > 500 µM, respectively.
